# Data reported in patent publication US11065253B2, “Arylquinazolines” (Merck Patent GmbH, priority 2013, dated 2021).
# Test system: phospho-serine 2056 DNA-PK in HCT116 cells
# Test: DNA-PK phosphorylation at serine 2056 (cellular), ELISA in bleomycin-treated HCT116 cells
# Assay type: cell-based
# Settings: Homo sapiens, HCT-116, 6 h, cellular; HCT116 cells, 10 μM bleomycin, six hours; read-out: IC50 pDNA-PK
# Method in brief: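 After overnight seeding, HCT116 cells received compound with 10 μM bleomycin for 6 h; phospho-DNA-PK ELISA signals were scaled to total DNA-PKcs, DMSO serving as blank.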
row,IC50 [µM],Compound
1,< 0.5,"OC(c1ccc(F)c(-c2ncnc3cc(N4CCOCC4)ccc23)c1)c1cncc(F)c1Cl (centres unmarked) [Example 2, (4-Chloro-5-fluoropyridin-3-yl)-[4-fluoro-3-(7-morpholin-4-ylquinazolin-4-yl)phenyl]methanol]"
2,< 0.5,"CCn1nc(C(O)c2cc(-c3ncnc4cc(N5CCOCC5)ccc34)c(F)cc2Cl)ccc1=O (centres unmarked) [Example 93, 6-{[2-Chloro-4-fluoro-5-(7-morpholin-4-yl-quinazolin-4-yl)phenyl]-hydroxymethyl}-2-ethyl-2H-pyridazin-3-one]"
3,< 0.5,"OC(c1ccnnc1)c1cc(-c2ncnc3cc(N4CCOCC4)ccc23)c(F)cc1Cl (centres unmarked) [Example 36, [2-Chloro-4-fluoro-5-(7-morpholin-4-yl-quinazolin-4-yl)phenyl]-pyridazin-4-ylmethanol]"
4,< 0.5,"COc1ncc(Cl)nc1C(O)c1ccc(F)c(-c2ncnc3cc(N4CCOCC4)ccc23)c1 (centres unmarked) [Example 25, (6-Chloro-3-methoxy-pyrazin-2-yl)-[4-fluoro-3-(7-morpholin-4-yl-quinazolin-4-yl)phenyl]-methanol]"

# Same assay, conditions: Homo sapiens, HCT-116, cellular DNA-PK phosphorylation at serine 2056, HCT116 cells; read-out: IC50 pDNA-PK
row,Compound,IC50 [µM]
1,"Cn1cnc2c(C(O)c3ccc(F)c(-c4ncnc5cc(N6CCOCC6)ccc45)c3)ncnc21 (centres unmarked) [Example 420, [4-Fluoro-3-(7-morpholin-4-yl-quinazolin-4-yl)-phenyl]-(9-methyl-9H-purin-6-yl)-methanol]",5 to 10
2,"OC(c1cc(-c2ncnc3cc(N4CCOCC4)ccc23)ccc1Cl)c1nccn2ccnc12 (centres unmarked) [Example 369, [2-Chloro-5-(7-morpholin-4-yl-quinazolin-4-yl)-phenyl]imidazo-[1,2-a]pyrazin-8-yl-methanol]",5 to 10
3,"Cn1c(C(O)c2cc(-c3ncnc4cc(N5CCOCC5)ccc34)c(F)cc2F)cccc1=O (centres unmarked) [Example 380, 6-{[2,4-Difluoro-5-(7-morpholin-4-yl-quinazolin-4-yl)-phenyl]hydroxy-methyl}-1-methyl-1H-pyridin-2-one (Ena 2)]",0.5 to 5

# The next lines start with the values.
row,IC50 [µM],Compound
1,0.5 to 5,"COc1cncnc1C(O)c1cc(-c2ncnc3cc(N4CCOCC4)ccc23)c(F)cc1Cl (centres unmarked) [Example 447, [2-Chloro-4-fluoro-5-(7-morpholin-4-yl-quinazolin-4-yl)-phenyl]-(5-methoxy-pyrimidin-4-yl)-methanol]"
2,< 0.5,"Cc1nccnc1C(O)c1cc(-c2ncnc3cc(N4CCOCC4)ccc23)c(F)cc1Cl (centres unmarked) [Example 457, [2-Chloro-4-fluoro-5-(7-morpholin-4-yl-quinazolin-4-yl)-phenyl]-(3-methyl-pyrazin-2-yl)-methanol]"

# Same assay, conditions: Homo sapiens, HCT-116, phospho-serine 2056 DNA-PK, bleomycin-treated HCT116 cells; class symbols A-D; read-out: IC50 pDNA-PK
row,Compound,IC50 [µM]
1,"OC(c1cccc(-c2ncnc3cc(N4CCOCC4)ccc23)c1)(c1nccs1)C(F)(F)F (centres unmarked) [Example 172, 2,2,2-Trifluoro-1-[3-(7-morpholin-4-yl-quinazolin-4-yl)-phenyl]-1-thiazol-2-ylethanol]",10 to 30
2,"CNCc1csc(C(O)c2cc(-c3ncnc4cc(N5CCOCC5)ccc34)c(F)cc2Cl)n1 (centres unmarked) [Example 143, [2-Chloro-4-fluoro-5-(7-morpholin-4-yl-quinazolin-4-yl)-phenyl]-(4-methylamino-methyl-thiazol-2-yl)-methanol]",5 to 10
3,"OC(c1ccc(F)c(-c2ncnc3cc(N4CCOCC4)sc23)c1)c1nccs1 (centres unmarked) [Example 145, [4-Fluoro-3-(6-morpholin-4-yl-thieno[3,2-d}-pyrimidin-4-yl)-phenyl]thiazol-2-yl-methanol]",0.5 to 5

# Now from value to compound:
row,IC50 [µM],Compound
1,5 to 10,"OCc1csc([C@H](O)c2cc(-c3ncnc4cc(N5CCOCC5)ccc34)c(F)cc2Cl)n1 [Example 186, (R)-[2-Chloro-4-fluoro-5-(7-morpholin-4-yl-quinazolin-4-yl)-phenyl]-(4-hydroxymethyl-thiazol-2-yl)-methanol]"
2,0.5 to 5,"COCCOc1ccc(C(O)c2cc(-c3ncnc4cc(N5CCOCC5)ccc34)c(F)cc2Cl)nn1 (centres unmarked) [Example 112, [2-Chloro-4-fluoro-5-(7-morpholin-4-yl-quinazolin-4-yl)-phenyl]-[6-(2-methoxyethoxy)-pyridazin-3-yl]-methanol]"
3,10 to 30,"COc1ccc([C@H](O)c2cc(-c3ncnc4cc(N5CCOCC5)ccc34)c(F)cc2Cl)nn1 [Example 135, (R)-[2-Chloro-4-fluoro-5-(7-morpholin-4-yl-quinazolin-4-yl)-phenyl]-(6-methoxy-pyridazin-3-yl)-methanol]"

# Same assay, conditions: Homo sapiens, HCT-116, phospho-serine 2056 DNA-PK, bleomycin-treated HCT116 cells; read-out: IC50 pDNA-PK
row,Compound,IC50 [µM]
1,"NC(=O)C(c1cc(-c2ncnc3cc(N4CCOCC4)ccc23)ccc1Cl)c1nccnc1Cl (centres unmarked) [Example 315, 2-[2-Chloro-5-(7-morpholin-4-yl-quinazolin-4-yl)-phenyl]-2-(3-chloro-pyrazin-2-yl)-acetamide]",10 to 30
2,"NC(=O)C(c1cc(-c2ncnc3cc(N4CCOCC4)ccc23)c(F)cc1F)c1nccn2cccc12 (centres unmarked) [Example 348, 2-[2,4-Difluoro-5-(7-morpholin-4-yl-quinazolin-4-yl)-phenyl]-2-pyrrolo-[1,2-a]pyrazin-1-yl-acetamide]",0.5 to 5
3,"OC(c1cc(-c2ncnc3cc(N4CCOCC4)ccc23)c(F)cc1F)c1nccn2cccc12 (centres unmarked) [Example 358, [2,4-Difluoro-5-(7-morpholin-4-yl-quinazolin-4-yl)-phenyl]pyrrolo[1,2-a]-pyrazin-1-ylmethanol]",< 0.5

# Next, values leading:
row,IC50 [µM],Compound
1,5 to 10,"Nc1cncc(C(O)c2ccc(F)c(-c3ncnc4cc(N5CCOCC5)ccc34)c2)n1 (centres unmarked) [Example 302, (6-Amino-pyrazin-2-yl)-[4-fluoro-3-(7-morpholin-4-yl-quinazolin-4-yl)-phenyl]methanol]"
2,5 to 10,"NC(=O)C(c1cccnc1)c1cc(-c2ncnc3cc(N4CCOCC4)ccc23)c(F)cc1Cl (centres unmarked) [Example 293, 2-[2-Chloro-4-fluoro-5-(7-morpholin-4-yl-quinazolin-4-yl)-phenyl]-2-pyridin-3-ylacetamide]"
3,10 to 30,"Cn1nc(C(C(N)=O)c2cc(-c3ncnc4cc(N5CCOCC5)ccc34)c(F)cc2Cl)ccc1=O (centres unmarked) [Example 311, 2-[2-Chloro-4-fluoro-5-(7-morpholin-4-yl-quinazolin-4-yl)-phenyl]-2-(1-methyl-6-oxo-1,6-dihydro-pyridazin-3-yl)-acetamide]"

# Same assay, conditions: cellular DNA-PK phosphorylation at serine 2056, HCT116 cells; read-out: IC50 pDNA-PK
row,Compound,IC50 [µM]
1,"OC(c1ccc(F)c(-c2ncnc3cc(N4CCOCC4)ccc23)c1)c1nccnc1OC(F)F (centres unmarked) [Example 464, (3-Difluoromethoxy-pyrazin-2-yl)-[4-fluoro-3-(7-morpholin-4-yl-quinazolin-4-yl)-phenyl]methanol]",0.5 to 5
2,"OC(c1cc(-c2ncnc3cc(N4CCOCC4)ccc23)c(F)cc1F)c1nccnc1OC(F)F (centres unmarked) [Example 450, (3-Difluoromethoxy-pyrazin-2-yl)-[2,4-difluoro-5-(7-morpholin-4-yl-quinazolin-4-yl)-phenyl]methanol]",5 to 10

# Same assay, conditions: cellular; HCT116 cells, 10 μM bleomycin, six hours; read-out: IC50 pDNA-PK
row,IC50 [µM],Compound
1,< 0.5,"OC(c1cccnn1)c1cc(-c2ncnc3cc(N4CCOCC4)ccc23)c(F)cc1Cl (centres unmarked) [Example 47, [2-Chloro-4-fluoro-5-(7-morpholin-4-yl-quinazolin-4-yl)phenyl]-pyridazin-3-ylmethanol]"

# Same assay, conditions: phospho-serine 2056 DNA-PK, bleomycin-treated HCT116 cells; class symbols A-D; read-out: IC50 pDNA-PK
row,IC50 [µM],Compound
1,0.5 to 5,"OC(c1cc(F)c(F)c(-c2ncnc3cc(N4CCOCC4)ccc23)c1)c1nccs1 (centres unmarked) [Example 178, [3,4-Difluoro-5-(7-morpholin-4-yl-quinazolin-4-yl)-phenyl]thiazol-2-yl-methanol]"

# Same assay, conditions: phospho-serine 2056 DNA-PK, bleomycin-treated HCT116 cells; read-out: IC50 pDNA-PK
row,IC50 [µM],Compound
1,10 to 30,"[2H]C1([2H])OC([2H])([2H])C([2H])([2H])N(c2ccc3c(-c4cc(C(O)c5ccc(OC)nn5)c(Cl)cc4F)ncnc3c2)C1([2H])[2H] (centres unmarked) [Example 239, [2-Chloro-4-fluoro-5-[7-(2,2,3,3,5,5,6,6-octadeuterio-morpholin-4-yl)quinazolin-4-yl]phenyl]-(6-methoxypyridazin-3-yl)methanol]"
